Results on 30 compounds are retold here after patent publication US7078438B2, “N-(4 substituted phenyl)-anthranilic acid hydroxamate esters” (Warner-Lambert Company, priority 2002, dated 2006).

Structures are written as SMILES.

One data set relates to MEK. Briefly: Cellular assay for measuring MEK inhibition (inhibition of ERK phosphorylation). Format: cell-based. As to conditions: inhibition of phosphorylation of MAP kinase (ERK) in murine colon 26 (C26) carcinoma cells; 1 hour at 37° C.; Western blotting. The method, then:
Cellular Assay for Measuring MEK Inhibition
The evaluation of the compounds as MEK inhibitors is performed in an assay that measures their ability to inhibit phosphorylation of MAP kinase (ERK) in murine colon 26 (C26) carcinoma cells. Since ERK1 and ERK2 represent the only known substrates for MEK, measurement of inhibition of ERK phosphorylation in cells provides direct readout of cellular MEK inhibition by the compounds of the invention. Briefly, the assay involves treating exponentially growing C26 cells with varying concentrations of the test compound (or vehicle control) for 1 hour at 37° C. Cells are then rinsed free of compound/vehicle and lysed in a solution containing 70 mM NaCl, 50 mM glycerol phosphate, 10 mM HEPES, pH 7.4, 1% Triton X-100, 1 mM Na3VO4, 100 μM PMSF, 10 μM leupeptin, and 10 μM pepstatin. Supernatants are then subjected to gel electrophoresis and Western blotting using a primary antibody recognizing dually phosphorylated ERK1 and ERK2. To evaluate total MAPK levels, blots were subsequently ‘stripped’ and re-probed with a 1:1 mixture of polyclonal antibodies recognizing unphosphorylated ERK1 and ERK2.
The inhibition data generated by the above protocol is disclosed in Table 1. If several concentrations of inhibitor were tested, IC50 values (the concentration which gives 50% inhibition) were determined graphically from the dose response curve for % inhibition. Otherwise, percent inhibitions at measured concentrations are reported.
A general note: Immunoblotting shows a protein as a band on a membrane.

A word on the melting point: it is the temperature of the solid-liquid transition. As for `CCc1ccc(Nc2c(C(=O)NOC(CO)CO)ccc(F)c2F)c(F)c1` [Example 33, 2-(4-Ethyl-2-fluoro-phenylamino)-3,4-difluoro-N-(2-hydroxy-1-hydroxymethyl-ethoxy)-benzamide], the melting point was in the range of 91 to 93 °C.

For `O=C(NOCCO)c1ccc(F)c(F)c1Nc1ccc(CC(O)CO)cc1F` (stereo not shown) [Example 22, 2-[4-(2,3-Dihydroxypropyl)-2-fluoroanilino]-3,4-difluoro-N-(2-hydroxyethoxy)benzamide], the melting point lay within 118 to 120 °C.

The IC50 is the concentration needed to halve the response being measured. A higher IC50 goes with weaker potency in that assay. For the compound `CN(C)CCCc1ccc(Nc2c(C(=O)NOCCO)ccc(F)c2F)c(F)c1` [Example 15, 2-{4-[3-(Dimethylamino)propyl]-2-fluoroanilino}-3,4-difluoro-N-(2-hydroxyethoxy)benzamide], in the data set on MEK, the IC50 was above 1000 nM.

On to `CC(C)(O)CCc1ccc(Nc2c(C(=O)NOCCO)ccc(F)c2F)c(F)c1` [Example 23, 3,4-Difluoro-2-[2-fluoro-4-(3-hydroxy-3-methylbutyl)anilino]-N-(2-hydroxyethoxy)benzamide], for which, in the data set on MEK, the IC50 is 200 nM.

`C=Cc1ccc(Nc2c(C(=O)NOCCO)ccc(F)c2F)c(F)c1` [Example 4, 3,4-Difluoro-2-[(2-fluoro-4-vinylphenyl)amino]-N-(2-hydroxyethoxy)benzamide]: the melting point lay within 134 to 138 °C. Also, inhibition in the data set on MEK was half-maximal at 2.6 nM (IC50).

`O=C(NOCCO)c1ccc(F)c(F)c1Nc1ccc(CO)cc1F` [Example 18, 3,4-Difluoro-2-[2-fluoro-4-(hydroxymethyl)anilino]-N-(2-hydroxyethoxy)benzamide]: the melting point is 108 to 110 °C.

In the case of `Cc1ccc(Nc2c(C(=O)NOCCO)ccc(F)c2F)c(F)c1` [Example 3, 3,4-Difluoro-2-(2-fluoro-4-methylanilino)-N-(2-hydroxyethoxy)benzamide], the melting point lay within 134 to 139 °C. The same compound registered an IC50 with MEK of 0.15 nM.

In the case of `NCC#Cc1ccc(Nc2c(C(=O)NOCCO)ccc(F)c2F)c(F)c1` [Example 9, 2-[4-(3-Amino-1-propynyl)-2-fluoroanilino]-3,4-difluoro-N-(2-hydroxyethoxy)benzamide], the melting point was 72 to 76 °C. In addition, inhibition in the data set with MEK was half-maximal at 467 nM (IC50).

In the data set on MEK, `CCc1ccc(Nc2c(C(=O)NOC[C@@H](O)CO)ccc(F)c2F)c(F)c1` [Example 32, N-[(S+)2,3-Dihydroxy-propoxy]-2-(4-ethyl-2-fluoro-phenylamino)-3,4-difluoro-benzamide] came in with an IC50 of 2 nM.

On to `O=C(NOCCO)c1ccc(F)c(F)c1Nc1ccc(C#CCO)cc1F` [Example 10, 3,4-Difluoro-2-[2-fluoro-4-(3-hydroxy-1-propynyl)anilino]-N-(2-hydroxyethoxy)benzamide], for which the melting point lay in the range of 169 to 172 °C. Moreover, in the data set on MEK, the IC50 came out at 130 nM.

`CCc1ccc(Nc2c(C(=O)NOCCO)ccc(F)c2F)c(Cl)c1` [Example 2, 2-(2-Chloro-4-ethyl-phenylamino)-3,4-difluoro-N-(2-hydroxy-ethoxy)-benzamide] displayed a melting point of 142.5 to 145 °C. The compound also registered an IC50 in the data set on MEK of 8.6 nM.

Compound `CSc1ccc(Nc2c(C(=O)NOCCO)ccc(F)c2F)c(F)c1` [Example 26, 3,4-Difluoro-2-[[2-fluoro-4-(methylthio)phenyl]amino]-N-(2-hydroxyethoxy)benzamide] registered a melting point of 108 to 111 °C. In the data set on MEK, this compound had an IC50 of 0.85 nM.

Regarding `NCCCc1ccc(Nc2c(C(=O)NOCCO)ccc(F)c2F)c(F)c1` [Example 14, 2-[4-(3-Aminopropyl)-2-fluoroanilino]-3,4-difluoro-N-(2-hydroxyethoxy)benzamide], the melting point fell in the range of 178 to 181 °C. In the data set with MEK, this compound yielded an IC50 above 1000 nM.

Compound `O=C(NOCCO)c1ccc(F)c(F)c1Nc1ccc(CCCO)cc1F` [Example 20, 3,4-Difluoro-2-[2-fluoro-4-(3-hydroxypropyl)anilino]-N-(2-hydroxyethoxy)benzamide] showed a melting point of 115 to 116 °C.

In the data set with MEK, `COCCCc1ccc(Nc2c(C(=O)NOCCO)ccc(F)c2F)c(F)c1` [Example 25, 3,4-Difluoro-2-[[2-fluoro-4-(3-methoxypropyl)phenyl]amino]-N-(2-hydroxyethoxy)benzamide] came in with an IC50 of 22 nM. That is a double-digit nanomolar value.

`CS(=O)(=O)c1ccc(Nc2c(C(=O)NOCCO)ccc(F)c2F)c(F)c1` [Example 28, 3,4-Difluoro-2-[[2-fluoro-4-(methylsulfonyl)phenyl]amino]-N-(2-hydroxyethoxy)benzamide] gave a melting point of 85 to 88 °C. For the same compound, the IC50 in the data set on MEK stood at 720 nM.

Turning to `C=CCc1ccc(Nc2c(C(=O)NOCCO)ccc(F)c2F)c(F)c1` [Example 6, 2-(4-Allyl-2-fluoroanilino)-3,4-difluoro-N-(2-hydroxyethoxy)benzamide], the melting point fell in the range of 173 to 177 °C. Also, in the data set with MEK, it took 7.8 nM to reach half-maximal inhibition (IC50).

For the compound `O=C(NOCCO)c1ccc(F)c(F)c1Nc1ccc(CCCCO)cc1F` [Example 21, 3,4-Difluoro-2-[2-fluoro-4-(4-hydroxybutyl)anilino]-N-(2-hydroxyethoxy)benzamide], the melting point lay in the range of 65 to 69 °C. In the data set with MEK, this compound displayed an IC50 of 800 nM.

Compound `C#Cc1ccc(Nc2c(C(=O)NOCCO)ccc(F)c2F)c(F)c1` [Example 7] showed a melting point of 158 to 161 °C. In the data set with MEK, this compound came in with an IC50 of 0.15 nM.

In turn, `O=C(NOCCO)c1ccc(F)c(F)c1Nc1ccc(CO)cc1` [Example 17, 3,4-Difluoro-N-(2-hydroxyethoxy)-2-[[4-(hydroxymethyl)phenyl]amino]benzamide] registered a melting point of 73 to 77 °C. In the data set on MEK, this compound gave an IC50 above 1000 nM.

Compound `CCSc1ccc(Nc2c(C(=O)NOCCO)ccc(F)c2F)c(F)c1` [Example 27, 3,4-Difluoro-2-[[2-fluoro-4-(ethylthio)phenyl]amino]-N-(2-hydroxyethoxy)benzamide] yielded a melting point of 129 to 132 °C. The compound also displayed an IC50 with MEK of 2.2 nM.

Take `CC(C)(O)C#Cc1ccc(Nc2c(C(=O)NOCCO)ccc(F)c2F)c(F)c1` [Example 12, 3,4-Difluoro-2-[2-fluoro-4-(3-hydroxy-3-methyl-1-butynyl)anilino]-N-(2-hydroxyethoxy)benzamide]: the melting point lay in the range of 139 to 142 °C. The compound also yielded an IC50 with MEK above 3000 nM.

With `CCc1ccc(Nc2c(C(=O)NOCCO)ccc(F)c2F)c(F)c1` [Example 1, 2-[(4-Ethyl-2-fluorophenyl)amino]-3,4-difluoro-N-(2-hydroxyethoxy)benzamide], in the data set on MEK, 2.8 nM corresponded to half-maximal inhibition (IC50).

In turn, `CCC(C)(O)C#Cc1ccc(Nc2c(C(=O)NOCCO)ccc(F)c2F)c(F)c1` (stereo not shown) [Example 13, 3,4-Difluoro-2-[2-fluoro-4-(3-hydroxy-3-methyl-1-pentynyl)anilino]-N-(2-hydroxyethoxy)benzamide] returned a melting point of 127 to 131 °C. This compound came in with an IC50 with MEK above 1000 nM.

In the case of `CCCc1ccc(Nc2c(C(=O)NOCCO)ccc(F)c2F)c(F)c1` [Example 29, 3,4-Difluoro-2-(2-fluoro-4-propylanilino)-N-(2-hydroxyethoxy)benzamide], the melting point was in the range of 144 to 146 °C. Also, the midpoint of inhibition in the data set on MEK, the IC50, lay at 4.1 nM.

`CCCCc1ccc(Nc2c(C(=O)NOCCO)ccc(F)c2F)c(F)c1` [Example 30, 2-(4-Butyl-2-fluoroanilino)-3,4-difluoro-N-(2-hydroxyethoxy)benzamide] returned a half-inhibitory concentration (IC50) in the data set with MEK of 190 nM.

With `O=C(NOCCO)c1ccc(F)c(F)c1Nc1ccc(C#CCCO)cc1F` [Example 11, 3,4-Difluoro-2-[2-fluoro-4-(4-hydroxy-1-butynyl)anilino]-N-(2-hydroxyethoxy)benzamide], the melting point lay in the range of 126 to 129 °C. The same compound registered an IC50 in the data set on MEK of 700 nM.

Compound `CNCCCc1ccc(Nc2c(C(=O)NOCCO)ccc(F)c2F)c(F)c1` [Example 16, 3,4-Difluoro-2-{2-fluoro-4-[3-(methylamino)propyl]anilino}-N-(2-hydroxyethoxy)benzamide] returned a melting point of 112 to 116 °C. This compound yielded an IC50 in the data set on MEK above 1000 nM.

`C#Cc1ccc(Nc2c(C(=O)NOCCO)ccc(F)c2F)c(Cl)c1` [Example 8, 2-(2-Chloro-4-ethynyl-phenylamino)-3,4-difluoro-N-(2-hydroxy-ethoxy)-benzamide] came in with a melting point of 155 to 157 °C. Also, the IC50 in the data set on MEK came out at 4 nM.

Compound `CCC(C)(O)CCc1ccc(Nc2c(C(=O)NOCCO)ccc(F)c2F)c(F)c1` (stereo not shown) [Example 24, 3,4-Difluoro-2-[2-fluoro-4-(3-hydroxy-3-methylpentyl)anilino]-N-(2-hydroxyethoxy)benzamide] gave an IC50 in the data set with MEK of 590 nM.
